Experimental data: US4791114A, “2-Benzimidazolylalkylthio (or -sulfinyl or -sulfonyl) derivatives, their preparation and their application as medicinal products” (501 Laboratorios Del, Dr. Esteve, priority 1986, dated 1988)

Experiments:
[1] = Acute toxicity in mice (oral LD50, Litchfield and Wilcoxon); conditions: mouse, in vivo, suspended in 5% gum arabic
Protocol: Method of Litchfield and wilcoxon [Litchfield, J. T. and Wilcoxon, E. J., H. Pharmacol. Exp. Therap., 96, 19-113 (1949)].
The product is administered orally, suspended in 5% gum arabic in double-distilled water. The volume administered is 10 ml/kg. The fifty percent lethal dose (LD50) is calculated according to the method cited.

[2] = system: gastric acid secretion; assay: Inhibition of gastric acid secretion in Shay rats (pylorus ligation); assay type: in vivo, male Wistar rats; conditions: Rattus norvegicus, 2 h, intraduodenal, two hours after pylorus ligation; for inhibition in vivo at 40 mg/kg: i.d., read-out: Percentage inhibition of gastric acid secretion
Excerpt: Method of Shay [Shay, H.; Komarov, S. A.; Feis, S. S.; Merange, D.; Grvenstein, M.; Siplet, H.; Gastroenterology, 5, 43 (1945)--Visscher, F. E.; Seay, P. H.; Taxelaar, A. P.; Veldkamp, W.; Vander Brook, M. J.; J. Pharmac. Exp. Ther., 110, 188 (1954)--"Animal Experiments in Pharmacological Analysis", F. R. Domer; C. C. Thomas Pub., Springfield, Ill., USA, 1970, p. 140].
In this test, male Wistar rats weighing 200 to 250 grams are used, the animals being maintained fasted from the day preceding that of the trail, with access to water ad libitum. A minimum of 4 animals is used in each batch.
The rats are anesthetized with ethyl ether, laporotomy is performed and the pylorus is ligated, and the abdominal incision is then sutured. The administration of the products, with the vehicle for the control batch, is performed intraduodenally (i.d.) before the abdominal incision is sutured. The dose administered for the first trail is 40 mg/kg, and the fifty percent effectove dose (ED50) i.d. is also determined in a second trial. The vehicle used is 5% w/v gum arabic in double-distilled water.
Two hours after ligation of the pyrolus, the rats are sacrificed by prolonged anesthesia with ethyl ether, and the volume of the gastric juice is measured and the total acidity determined by means of a pH meter equipped with an automatic burette. For each product and for each dose tested, the percentage inhibition of gastric acid secretion is determined relative to the control batch.

Structure (SMILES) | LD50 ([1]; female mice) | LD50 ([1]; male mice) | ED50 [2] | inhibition in vivo at 40 mg/kg [2]
c1cnc(SCc2nc3ccccc3[nH]2)nc1 [Example 1, 2-(2-benzimidazolylmethylthio)pyrimidine] | 2700 mg/kg | 3200 mg/kg | 13 mg/kg | 98%
Cc1cc(C)nc(SCc2nc3ccccc3[nH]2)n1 [Example 3] | > 3200 mg/kg | > 3200 mg/kg | 16 mg/kg | 88%
O=[N+]([O-])c1ccc(SCc2nc3ccccc3[nH]2)nc1 [Example 4] |  |  | 21 mg/kg | 74%
Cc1cc2nc(CSc3ccccn3)[nH]c2cc1C [Example 6, 5,6-dimethyl-2-(2-pyridylthiomethyl)benzimidazole] |  |  | 19 mg/kg | 92%
[O-][n+]1ccccc1SCc1nc2ccccc2[nH]1 [Example 7] |  |  | 19 mg/kg | 95%
O=C(c1ccccc1)c1ccc2nc(CSc3ccccn3)[nH]c2c1 [Example 10, 5-benzoyl-2-(2-pyridylthiomethyl)benzimidazole] |  |  | 14 mg/kg | 93%
O=C(c1ccccc1)c1ccc2nc(C[S+]([O-])c3ccccn3)[nH]c2c1 (centres unmarked) [Example 27, 5-benzoyl-2-(2-pyridylsulfinylmethyl)benzimidazole] | 3200 mg/kg | 3200 mg/kg | 7 mg/kg | 95%
[O-][S+](Cc1nc2ccccc2[nH]1)c1ccccn1 (centres unmarked) [Example 28, 2-(2-pyridylsulfinylmethyl)benzimidazole] | 3200 mg/kg | 3200 mg/kg | 8 mg/kg | 90%
O=[N+]([O-])c1ccc([S+]([O-])Cc2nc3ccccc3[nH]2)nc1 (centres unmarked) [Example 29] | 2400 mg/kg | 2400 mg/kg | 4 mg/kg | 90%
Cc1cc2nc(C[S+]([O-])c3ccccn3)[nH]c2cc1C (centres unmarked) [Example 31] | > 6400 mg/kg | > 6400 mg/kg | 15 mg/kg | 96%
[O-][S+](Cc1nc2cc(Cl)ccc2[nH]1)c1ccccn1 (centres unmarked) [Example 32] |  |  | 17 mg/kg | 92%
Cc1cnc([S+]([O-])Cc2nc3cc(C(=O)c4ccccc4)ccc3[nH]2)c(C)c1 (centres unmarked) [Example 41] |  |  | 10 mg/kg | 80%
Cc1ccnc([S+]([O-])Cc2nc3cc(C(=O)c4ccccc4)ccc3[nH]2)c1 (centres unmarked) [Example 44] |  |  | 10 mg/kg | 66%
O=S(=O)(Cc1nc2ccc(Cl)cc2[nH]1)c1ccccn1 [Example 54, 5-chloro-2-(2-pyridylsulfonylmethyl)benzimidazole] |  |  | 24 mg/kg | 70%
Cn1c(C[S+]([O-])c2ccccn2)nc2cc(C(=O)c3ccccc3)ccc21 (centres unmarked) [Example 60, 5-benzoyl-1-methyl-2-(2-pyridylsulfinylmethyl)benzimidazole] |  |  | 21 mg/kg | 75%
CCOC(=O)n1c(C[S+]([O-])c2ccccn2)nc2ccc(C(=O)c3ccccc3)cc21 (centres unmarked) [Example 63, 6-benzoyl-1-carboxyethyl-2-(2-pyridylsulfinylmethyl)benzimidazole] |  |  | 16 mg/kg | 81%
